Values quoted from earlier work in publication PMC7395068, “The evolution of strategies to minimise the risk of human drug-induced liver injury (DILI) in drug discovery and development” (Archives of Toxicology, 2020).
Like-named read-outs stand apart in the source and are kept apart here.

Assays:
[1] = cited from earlier work
[2] = tested on: hu-MPCC; details: cited from earlier work
[3] = tested on: RMPCC's; details: cited from earlier work
[4] = ref Chen 2011; cited from earlier work
[5] = cited from earlier work; remark: listed apart in the source
[6] = tested on: THLE or HepG2 cells, isolated mitochondria, BSEP; details: In vitro Assay; ref Aleo 2019; cited from earlier work
[7] = tested on: human hepatocytes; details: In vitro Assay; ref Xu 2008; cited from earlier work
[8] = tested on: PHH spheroids; details: In vitro Assay; ref Vorrink 2018; cited from earlier work
[9] = tested on: HepG2 cells; details: cited from earlier work
[10] = tested on: THLE-Null and THLE-3A4 cells; details: In vitro Assay; ref Gustafsson 2014; cited from earlier work
[11] = tested on: HepG2 C3A spheroid, BSEP, Glu/Gal in HepG2 cells, bioactivation; details: In vitro Assay; ref Williams 2019; cited from earlier work
[12] = tested on: hLiMTs; details: In vitro Assay; ref Proctor 2017; cited from earlier work
[13] = tested on: PHH; details: In vitro Assay; ref Proctor 2017; cited from earlier work
[14] = tested on: HepG2 cells; details: In vitro Assay; ref Persson 2013; cited from earlier work
[15] = tested on: isolated mouse liver mitochondria; details: In vitro Assay; ref Porceddu 2012; cited from earlier work
[16] = tested on: primary human hepatocytes, NIH3T3 fibroblasts, BSEP, CYP3A4; details: In vitro Assay; ref Schadt 2015; cited from earlier work
[17] = tested on: HepG2 cells, primary human hepatocytes; details: In vitro Assay; ref Garside 2014; cited from earlier work
[18] = tested on: rBsep; details: In vitro Assay; ref Dawson 2012; cited from earlier work
[19] = In vitro Assay, ref Khetani 2012
[20] = In vitro Assay, ref O'Brien 2006

SMILES | DILI +VE (5-8), DILI -VE (-4) ([1]; ref Chen 2016) | DILI severity category ([1]; ref Chen 2016) | HMPCC's [2, 19] | RMPCC's [3, 19] | DILI Score (FDA) (1-8) [4] | In vivo DILI ([5]; ref Aleo 2019) | In vivo DILI ([5]; ref Khetani 2012) | In vivo DILI ([5]; ref Vorrink 2018) | In vivo DILI ([5]; ref Xu 2008) | Partition Hybrid HRM Score [6] | Ro2 Hybrid HRM Score [6] | Structural based (HCI) [7] | hLiMTs ATP <20 x Cmax [8] | In vivo DILI ([5]; […]) | in vitro data EC20<=2uM [15] | Structural based (HCI) [9, 20] | other results
CNCCC=C1c2ccccc2CCc2ccccc21 [nortriptyline] | +VE | vMost-DILI-Concern | +VE | +VE | 8 | +VE | +VE | +VE | +VE | +VE | +VE | -VE | +VE (IC20 < 20 × Cmax.tot cut-off) |  |  |  | 
C=C[C@H]1C[N@@]2CC[C@H]1C[C@H]2[C@H](O)c1ccnc2ccc(OC)cc12 [quinine] |  |  |  |  |  |  |  |  |  |  |  |  | +VE (IC20 < 20 × Cmax.tot cut-off) |  |  |  | DILI +VE (5-8), DILI -VE (-4) ([1]; in vivo): +VE; DILI severity category ([1]; in vivo): vLess-DILI-Concern; HMPCC's [2]: +VE; RMPCC's [3]: +VE; In vivo DILI ([5]; in vivo): +VE; Structural based (HCI) [9]: +VE
CCc1oc2ccccc2c1C(=O)c1cc(Br)c(O)c(Br)c1 [benzbromarone] | +VE | vMost-DILI-Concern | +VE | +VE |  | +VE | +VE |  | +VE | +VE | +VE | +VE |  | +VE |  |  | THLE-Null [10]: +VE; THLE-Null/3A4 [10]: +VE; Bayesian Machine Learning [11]: +VE; hLiMTs ATP <100uM [12]: +VE (IC50 threshold of 100 µM); In vivo DILI ([5]; ref Gustafsson 2014): +VE; In vivo DILI ([5]; ref Proctor 2017): +VE; In vivo DILI ([5]; ref Williams 2019): +VE; PHH ATP <100uM [13]: +VE (IC50 threshold of 100 µM)
O=c1n(CCCN2CCN(c3cccc(Cl)c3)CC2)nc2ccccn12 [trazodone] | +VE | vLess-DILI-Concern | +VE | +VE | 5 | +VE | +VE | +VE | +VE | +VE | +VE | +VE | +VE (IC20 < 20 × Cmax.tot cut-off) |  |  |  | 
CCN(CC)CC(=O)Nc1c(C)cccc1C [lidocaine] |  |  | +VE | +VE |  |  |  |  |  |  |  |  |  |  | +VE | +VE | Cluser analysis [14]: -VE; Structural based (HCI) [14]: -VE
CC(C(=O)O)c1ccc(-c2ccccc2)c(F)c1 (centres unmarked) [flurbiprofen] | -VE | Ambiguous DILI-concern | +VE | +VE | 3 |  | +VE |  | +VE | +VE | +VE | +VE |  |  |  |  | THLE-Null [10]: -VE; THLE-Null/3A4 [10]: -VE; Cellular toxicity (3T3 cells) [16]: -VE; Combined Assay [16]: -VE; GSH adduct HML [16]: -VE; Hepatocyte cellular toxicity [16]: -VE; MitoTox 3T3 [16]: -VE; TDI CYP3A4 [16]: -VE; hBSEP inhibition [16]: -VE; In vivo DILI ([5]; ref Garside 2014): +VE; In vivo DILI ([5]; ref Gustafsson 2014): +VE; In vivo DILI ([5]; ref Schadt 2015): -VE; Cluster 1-6 +VE Assay [17]: -VE
NC(=O)c1cnccn1 [pyrazinamide] | +VE | vLess-DILI-Concern | +VE | -VE | 3 | +VE | +VE |  | +VE | +VE | -VE | -VE |  | +VE | +VE | +VE | In vivo DILI ([5]; ref Garside 2014): +VE; In vivo DILI ([5]; ref O'Brien 2006): +VE; In vivo DILI ([5]; ref Porceddu 2012): +VE; in vitro data EC2<=1x Cmax [15]: +VE; Cluster 1-6 +VE Assay [17]: -VE
Cc1cccc(Nc2ccccc2C(=O)O)c1C [mefenamic acid] | +VE | vMost-DILI-Concern | +VE | +VE |  |  | +VE | +VE | +VE |  |  | +VE | +VE (IC20 < 20 × Cmax.tot cut-off) | +VE | +VE |  | hLiMTs ATP <100uM [12]: +VE (IC50 threshold of 100 µM); In vivo DILI ([5]; ref Porceddu 2012): +VE; In vivo DILI ([5]; ref Proctor 2017): -VE; in vitro data EC2<=1x Cmax [15]: +VE; PHH ATP <100uM [13]: +VE (IC50 threshold of 100 µM)
CC(=O)Oc1ccccc1C(=O)O [aspirin] | +VE | vLess-DILI-Concern | -VE | -VE |  |  | -VE |  | -VE |  |  | -VE |  |  |  | +VE | Cellular toxicity (3T3 cells) [16]: -VE; Combined Assay [16]: -VE; GSH adduct HML [16]: -VE; Hepatocyte cellular toxicity [16]: -VE; MitoTox 3T3 [16]: -VE; TDI CYP3A4 [16]: -VE; hBSEP inhibition [16]: -VE; In vivo DILI ([5]; ref O'Brien 2006): +VE; In vivo DILI ([5]; ref Schadt 2015): -VE
Cn1cc[nH]c1=S [methimazole] |  |  | -VE | -VE |  |  |  |  |  | -VE | -VE |  |  |  |  |  | Inhibition of rBsep cutoff<1& cmax u>.2 [18]: -VE; Inhibition of rBsep cutoff<3 [18]: -VE
CN1C(C(=O)Nc2ccccn2)=C(O)c2ccccc2S1(=O)=O [piroxicam] | +VE | vLess-DILI-Concern | -VE | +VE | 3 | +VE | +VE | +VE | +VE | -VE | +VE | -VE | -VE | +VE | +VE | +VE | Cluser analysis [14]: -VE; Structural based (HCI) [14]: -VE; Cellular toxicity (3T3 cells) [16]: -VE; Combined Assay [16]: -VE; GSH adduct HML [16]: -VE; Hepatocyte cellular toxicity [16]: -VE; MitoTox 3T3 [16]: -VE; TDI CYP3A4 [16]: -VE; hBSEP inhibition [16]: -VE; In vivo DILI ([5]; ref O'Brien 2006): +VE; In vivo DILI ([5]; ref Persson 2013): +VE; In vivo DILI ([5]; ref Porceddu 2012): +VE; In vivo DILI ([5]; ref Schadt 2015): -VE; in vitro data EC2<=1x Cmax [15]: +VE
CC(=O)[C@H]1CC[C@H]2[C@@H]3CCC4=CC(=O)CC[C@]4(C)[C@H]3CC[C@]12C [progesterone] | +VE | vLess-DILI-Concern | -VE | -VE |  |  | +VE | -VE | +VE |  |  | -VE | -VE | -VE |  |  | 
